# Assay results: ChEMBL document CHEMBL1139533, “Structure-activity relationship studies of a series of antiviral and antibacterial aglycon derivatives of the glycopeptide antibiotics vancomycin, eremomycin, and dechloroeremomycin” (J Med Chem, 2005)
# What was measured:
# [1] = tested on: Staphylococcus haemolyticus; assay: Minimum inhibitory concentration against 602 Staphylococcus haemolyticus; format: functional
# Staphylococcus aureus [2] = assay: Minimum inhibitory concentration against glycopeptide intermediate-resistant 3798 Staphylococcus aureus; format: functional
# Enterococcus faecium [3] = assay: Minimum inhibitory concentration against glycopeptide susceptible enterococci 568 Enterococcus faecium; format: functional
# Enterococcus faecalis [4] = assay: Minimum inhibitory concentration against glycopeptide resistant enterococci 560 Enterococcus faecalis; format: functional
# L1210 = assay: Cytostatic activity against L1210 cell line; format: functional, cell-based; conditions: Mus musculus
# CCRF-CEM = assay: Cytostatic activity to the compound against CEM cell line; format: functional, cell-based; conditions: Homo sapiens
# MOLT-4 = assay: Cytostatic activity to the compound against Molt4/C8 cell line; format: functional, cell-based; conditions: Homo sapiens
# Enterococcus faecium [5] = assay: Minimum inhibitory concentration against glycopeptide resistant enterococci 569 Enterococcus faecium; format: functional
# Staphylococcus aureus [6] = assay: Minimum inhibitory concentration against glycopeptide intermediate-resistant 3797 Staphylococcus aureus; format: functional
# [7] = tested on: Moloney murine sarcoma virus; assay: Effective concentration against Moloney sarcoma virus; format: functional, organism-based, Viruses
# Enterococcus faecalis [8] = assay: Minimum inhibitory concentration against 559 glycopeptide susceptible enterococci Enterococcus faecalis; format: functional
# [9] = tested on: Human immunodeficiency virus 1; assay: Effective concentration against human immunodeficiency virus type 1; format: functional, organism-based
# C3H/3T3 = assay: Minimal cytotoxic concentration to cause an alteration in C3H/3T3 cell line morphology; format: functional; conditions: Mus musculus
# [10] = tested on: Staphylococcus epidermidis; assay: Minimum inhibitory concentration against 533 Staphylococcus epidermidis; format: functional
# [11] = tested on: Human immunodeficiency virus 2; assay: Effective concentration against human immunodeficiency virus type 2; format: functional, organism-based
Structure (SMILES),MIC [1] [µg/mL],MIC (Staphylococcus aureus [2]) [µg/mL],MIC (Enterococcus faecium [3]) [µg/mL],MIC (Enterococcus faecalis [4]) [µg/mL],IC50 (L1210) [µM],IC50 (CCRF-CEM) [µM],IC50 (MOLT-4) [µM],MIC (Enterococcus faecium [5]) [µg/mL],MIC (Staphylococcus aureus [6]) [µg/mL],EC50 [7] [µM],MIC (Enterococcus faecalis [8]) [µg/mL],EC50 [9] [µM],MCC (C3H/3T3) [µg/mL],MIC [10] [µg/mL],EC50 [11] [µM]
CN[C@H](CC(C)C)C(=O)N[C@H]1C(=O)N[C@@H](CC(N)=O)C(=O)N[C@H]2C(=O)N[C@H]3C(=O)N[C@H](C(=O)N[C@H](C(=O)NCC45CC6CC(CC(C6)C4)C5)c4cc(O)cc(O)c4-c4cc3ccc4O)[C@H](O)c3ccc(cc3)Oc3cc2cc(c3O)Oc2ccc(cc2)[C@H]1O,16,16,4,16,58,165,44,16,8,11,8,8.5,100,8,12
NC(=O)C[C@@H]1NC(=O)[C@H](N)[C@H](O)c2ccc(c(Cl)c2)Oc2cc3cc(c2O)Oc2ccc(cc2)[C@@H](O)[C@@H]2NC(=O)[C@H](NC(=O)[C@@H]3NC1=O)c1ccc(O)c(c1)-c1c(O)cc(O)cc1[C@@H](C(=O)NC1C3CC4CC(C3)CC1C4)NC2=O (stereo not given in full),> 32,> 32,> 64,> 64,> 250,> 250,> 250,> 64,> 32,22,> 64,50,≥ 100,> 32,50
NCCCCCCCCCCNC(=O)[C@H]1NC(=O)[C@H]2NC(=O)[C@H](NC(=O)[C@@H]3NC(=O)[C@H](CC(N)=O)NC(=O)[C@H](N)[C@H](O)c4ccc(c(Cl)c4)Oc4cc3cc(c4O)Oc3ccc(cc3)[C@H]2O)c2ccc(O)c(c2)-c2c(O)cc(O)cc21,> 32,> 32,> 64,> 64,≥ 250,124,≥ 250,> 64,> 32,> 4,> 64,≥ 25,20,> 32,≥ 25
NC(=O)C[C@@H]1NC(=O)[C@H](N)[C@H](O)c2ccc(cc2)Oc2cc3cc(c2O)Oc2ccc(cc2)[C@@H](O)[C@@H]2NC(=O)[C@H](NC(=O)[C@@H]3NC1=O)c1ccc(O)c(c1)-c1c(O)cc(O)cc1[C@@H](C(=O)NCC13CC4CC(CC(C4)C1)C3)NC2=O,> 32,> 32,> 64,> 64,> 250,≥ 250,≥ 250,> 64,> 32,2.6,> 64,30,100,> 32,25.7
NCCCCCCCCCCNC(=O)[C@H]1NC(=O)[C@H]2NC(=O)[C@H](NC(=O)[C@@H]3NC(=O)[C@H](CC(N)=O)NC(=O)[C@H](N)[C@H](O)c4ccc(c(Cl)c4)Oc4cc3cc(c4O)Oc3ccc(cc3Cl)[C@H]2O)c2ccc(O)c(c2)-c2c(O)cc(O)cc21,> 32,> 32,> 64,> 64,> 250,139,≥ 250,> 64,> 32,9.3,> 64,≥ 25,100,> 32,≥ 25
CN[C@H](CC(C)C)C(=O)N[C@H]1C(=O)N[C@@H](CC(N)=O)C(=O)N[C@H]2C(=O)N[C@H]3C(=O)N[C@H](C(=O)N[C@H](C(=O)NCC45CC6CC(CC(C6)C4)C5)c4cc(O)cc(O)c4-c4cc3ccc4O)[C@H](O)c3ccc(cc3)Oc3cc2cc(c3O)Oc2ccc(cc2Cl)[C@H]1O,8,8,8,8,94,148,126,8,8,12,4,1.6,100,8,7
CN[C@H](CC(C)C)C(=O)N[C@H]1C(=O)N[C@@H](CC(N)=O)C(=O)N[C@H]2C(=O)N[C@H]3C(=O)N[C@H](C(=O)N[C@H](C(=O)O)c4cc(O)cc(O)c4-c4cc3ccc4O)[C@H](O)c3ccc(cc3)Oc3cc2cc(c3O)Oc2ccc(cc2)[C@H]1O,> 32,> 32,32,> 64,> 250,> 250,> 250,> 64,> 32,≥ 100,32,> 125,≥ 100,32,> 125
NC(=O)C[C@@H]1NC(=O)[C@H](N)[C@H](O)c2ccc(c(Cl)c2)Oc2cc3cc(c2O)Oc2ccc(cc2Cl)[C@@H](O)[C@@H]2NC(=O)[C@H](NC(=O)[C@@H]3NC1=O)c1ccc(O)c(c1)-c1c(O)cc(O)cc1[C@@H](C(=O)NCC13CC4CC(CC(C4)C1)C3)NC2=O,> 32,> 32,> 64,> 64,≥ 250,≥ 250,178,> 64,> 32,27,> 64,20,≥ 100,> 32,30
NCCCCCCCCCCNC(=O)[C@H]1NC(=O)[C@H]2NC(=O)[C@H](NC(=O)[C@@H]3NC(=O)[C@H](CC(N)=O)NC(=O)[C@H](N)[C@H](O)c4ccc(cc4)Oc4cc3cc(c4O)Oc3ccc(cc3)[C@H]2O)c2ccc(O)c(c2)-c2c(O)cc(O)cc21,> 32,> 32,> 64,> 64,≥ 250,106,144,> 64,> 32,7.8,> 64,> 25,≥ 20,> 32,> 25
